Earlier results in US20030056896A1, “Effective therapy for epilepsies” (priority 1995, published 2003).
Read-outs that look alike come from different tables or passages of the source.

solubility (gastrointestinal pH range of 1 to 8) | solubility (in water) | Structure (SMILES)
practically insoluble | – | O=C1NC(=O)C(c2ccccc2)(c2ccccc2)N1 [phenytoin]
– | practically insoluble in water | NC(=O)N1c2ccccc2C=Cc2ccccc21 [carbamazepine]
